Experiments:
Test in all cases: relative viability (nuclei count vs DMSO), 5 days (fraction); higher = more cells survive
[1] = compound: O=C(Nc1c[nH]nc1-c1nc2ccc(CN3CCOCC3)cc2[nH]1)NC1CC1 [AT9283] + COc1cc2c(Oc3ccc(NC(=O)C4(C(=O)Nc5ccc(F)cc5)CC4)cc3F)ccnc2cc1OCCCN1CCOCC1 [Foretinib] (partner 0.25 µM)
Summary of the method: (§1)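 Each reported value is a median over duplicate plates. It expresses relative viability: treated-well nuclei count divided by vehicle-well nuclei count. Lung cancer cell lines in 1536-well plates were dosed by pin tool a day after seeding, alone with one drug or with a fixed anchor-drug dose plus five library-drug doses (not always all listed) in √10 steps, and nuclei were counted after 5 days.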

[2] = compound: O=C(Nc1c[nH]nc1-c1nc2ccc(CN3CCOCC3)cc2[nH]1)NC1CC1 [AT9283] + CC(=O)Nc1cccc(-n2c(=O)n(C3CC3)c(=O)c3c(Nc4ccc(I)cc4F)n(C)c(=O)c(C)c32)c1 [Trametinib] (partner 0.02 µM)
Summary of the method: as §1

[3] = compound: C#Cc1cccc(Nc2ncnc3cc(OCCOC)c(OCCOC)cc23)c1 [Erlotinib] + CS(=O)(=O)CCNCc1ccc(-c2ccc3ncnc(Nc4ccc(OCc5cccc(F)c5)c(Cl)c4)c3c2)o1 [Lapatinib] (partner 2 µM)
Summary of the method: as §1

[4] = compound: O=C(Nc1c[nH]nc1-c1nc2ccc(CN3CCOCC3)cc2[nH]1)NC1CC1 [AT9283] + Nc1nc2[nH]cc(CCc3ccc(C(=O)N[C@@H](CCC(=O)O)C(=O)O)cc3)c2c(=O)[nH]1 [Pemetrexed] (partner 0.2 µM)
Summary of the method: as §1

[5] = compound: O=C(Nc1c[nH]nc1-c1nc2ccc(CN3CCOCC3)cc2[nH]1)NC1CC1 [AT9283] + Cc1cc(Nc2cc(N3CCN(C)CC3)nc(Sc3ccc(NC(=O)C4CC4)cc3)n2)n[nH]1 [Tozasertib] (partner 0.1 µM)
Summary of the method: as §1

Cell Line	relative viability ([1]; first compound 0.003 µM)	relative viability ([1]; first compound 0.03 µM)	relative viability ([1]; first compound 0.09487 µM)	relative viability ([1]; first compound 0.3 µM)	relative viability ([2]; first compound 0.003 µM)	relative viability ([2]; first compound 0.03 µM)	relative viability ([2]; first compound 0.09487 µM)	relative viability ([2]; first compound 0.3 µM)	relative viability ([3]; first compound 0.02 µM)	relative viability ([3]; first compound 0.2 µM)	relative viability ([3]; first compound 0.6325 µM)	relative viability ([3]; first compound 2 µM)	relative viability ([4]; first compound 0.003 µM)	relative viability ([4]; first compound 0.03 µM)	relative viability ([4]; first compound 0.09487 µM)	relative viability ([4]; first compound 0.3 µM)	relative viability ([5]; first compound 0.003 µM)	relative viability ([5]; first compound 0.03 µM)	relative viability ([5]; first compound 0.09487 µM)	relative viability ([5]; first compound 0.3 µM)
NCI-H2228	0.968	0.613	0.26	0.104	0.422	0.518	0.239	0.207	0.946	1.31	1.31	0.891	0.337	0.244	0.181	0.16	0.333	0.199	0.142	0.138
NCI-H2347	0.844	0.869	0.672	0.446	0.292	0.269	0.275	0.262	1.04	1.08	0.806	0.882	0.419	0.417	0.376	0.338	0.517	0.456	0.336	0.326
NCI-H2405	1.05	0.82	0.352	0.312	0.737	0.491	0.296	0.185	1.1	1.11	1.14	0.976	0.995	0.977	0.324	0.22	0.689	0.418	0.272	0.261
NCI-H3122	0.803	0.852	0.284	0.0779	0.277	0.247	0.168	0.097	1.08	1.03	0.982	1.01	0.2	0.191	0.176	0.123	0.338	0.348	0.319	0.113
PC-3 [JPC-3]	1	0.974	0.591	0.543	0.718	0.672	0.71	0.481	0.437	0.383	0.442	0.399	0.966	1.06	0.717	0.568	0.924	0.814	0.492	0.58
PC-14	0.956	0.796	0.581	0.16	0.827	0.459	0.131	0.0923	0.276	0.289	0.307	0.279	0.145	0.0954	0.0681	0.0563	0.504	0.387	0.0959	0.0742
RERF-LC-KJ	0.922	0.498	0.279	0.22	0.877	0.691	0.412	0.251	0.857	0.864	0.936	0.734	0.465	0.36	0.253	0.225	0.42	0.242	0.203	0.247
SK-LU-1	0.925	0.385	0.214	0.27	0.508	0.424	0.288	0.279	0.974	0.933	0.995	0.869	1.16	0.663	0.396	0.391	0.359	0.301	0.253	0.267
SK-MES-1	0.924	0.863	0.604	0.143	0.643	0.594	0.541	0.276	0.511	0.452	0.476	0.434	1.07	0.843	0.429	0.218	1	0.679	0.254	0.125
SW 1573	0.621	0.423	0.239	0.233	0.597	0.174	0.17	0.143	1.3	1.05	–	1.17	0.813	0.302	0.182	0.121	0.204	0.192	0.211	0.112
UMC-11	0.996	0.181	0.175	0.184	0.679	0.134	0.126	0.164	1.04	0.952	1.11	0.919	0.768	0.158	0.196	0.193	0.19	0.221	0.207	0.21
